Laboratory results: patent US9062050B2, “Inhibitor of JAK1 and JAK2” (Eli Lilly and Company, priority 2012, dated 2015)

Legend:
[1] = system: IL-6-STAT3 signaling; assay: DS1-AlphaScreen-pSTAT3 cell-based assay; settings: DS1 cells, IL6 10 ng/ml; read-out: IC50, inhibits IL-6-STAT3 signaling (pSTAT3)
Protocol: The DS1-AlphaScreen-pSTAT3-cell-based assay is used to examine the potency of compounds at blocking the IL6-stimulated STAT3 pathway. The JAK-STAT3 pathway is constitutively active in many types of cancers and is implicated in tumor cells for increasing proliferation, survival, and invasion. DS1 cells (ATCC) are cultured in RPMI complete medium with 10% FBS and then adopted and grown in DMEM/High Modified medium supplemented with 10% FBS at 37° C. at 95% humidity and under an atmosphere of 5% CO2. DS1 cells are plated at a density of 4×10^4 cells/well in 96 well-plates and cultured in serum-free culture medium at 37° C. for three hours, followed by pre-treatment either with vehicle alone (DMSO) or test compounds across a range of final concentrations from 0-20 μM for 10 min. IL6 (R&D System, 206-IL) is then added into the cell culture at 10 ng/ml final concentration, which is continued for an additional 30 min at 37° C. Finally, cells are lysed with 5× alpha lysis buffer and transferred to a 384-well plate (PerkinElmer, #6008280) filled with the reaction mixture (TGR Biosciences, South Australia, Australia, #TGRS3S10K) for pSTAT3 detection (#TGRS3SHV100). The plates are sealed and incubated at room temperature for 2 hours, and pSTAT3 is measured by using an Envision06 plate reader (TGR Biosciences, South Australia, Australia). The data are analyzed with ActivityBase 4.0.

[2] = biological target: JAK2 (Homo sapiens, UniProt O60674); assay: JAK LanthaScreen Kinase Assay (TR-FRET), JAK2; format: biochemical; parameters: purchased Life Technologies #PV4844; settings: enzyme assay, 5 micromolar ATP, n=1; read-out: IC50 against JAK2
Description: The JAK LanthaScreen™ Kinase Assay (Life Technologies, #PV4844) is used to determine compound IC50 values against the JAK1, JAK2, and JAK3 kinases. This kinase assay is a Time Resolved Fluorescence Resonance Energy Transfer (TR-FRET) assay format that uses long-lifetime terbium (Tb) labeled antibody as the donor species and Green Fluorescent Protein-Signal Transducers and Activators of Transcription (GFP-STAT1) as the acceptor species.
The TR-FRET ratio is used to monitor JAK1, JAK2, or JAK3 activity where an increase in phosphorylation of the GFP-STAT1 results in an increase in the TR-FRET ratio. Perform the kinase reaction using a 12.5 microliter reaction volume in shallow black 384-well Proxiplate (PerkinElmer, #6008260). […] Incubate at room temperature for 90 minutes, and read in an EnVision plate reader (PerkinElmer, #2104-0010) with 340 nm wavelength excitation filter and emission filters of 520 nm and 495 nm wavelengths. The ratio is derived from the emission wavelength for the GFP-STAT1 which is measured at 520 nanometer versus the emission at 495 nanometer for the Tb-anti-pSTAT1[pTyr701]. Derive the IC50 value for the compound using percent inhibition data, which is calculated from the reaction data relative to on-plate controls (active enzyme versus 2.0 micromolar control-inhibited enzyme). […]

Chain of JAK2 (O60674 whole entry): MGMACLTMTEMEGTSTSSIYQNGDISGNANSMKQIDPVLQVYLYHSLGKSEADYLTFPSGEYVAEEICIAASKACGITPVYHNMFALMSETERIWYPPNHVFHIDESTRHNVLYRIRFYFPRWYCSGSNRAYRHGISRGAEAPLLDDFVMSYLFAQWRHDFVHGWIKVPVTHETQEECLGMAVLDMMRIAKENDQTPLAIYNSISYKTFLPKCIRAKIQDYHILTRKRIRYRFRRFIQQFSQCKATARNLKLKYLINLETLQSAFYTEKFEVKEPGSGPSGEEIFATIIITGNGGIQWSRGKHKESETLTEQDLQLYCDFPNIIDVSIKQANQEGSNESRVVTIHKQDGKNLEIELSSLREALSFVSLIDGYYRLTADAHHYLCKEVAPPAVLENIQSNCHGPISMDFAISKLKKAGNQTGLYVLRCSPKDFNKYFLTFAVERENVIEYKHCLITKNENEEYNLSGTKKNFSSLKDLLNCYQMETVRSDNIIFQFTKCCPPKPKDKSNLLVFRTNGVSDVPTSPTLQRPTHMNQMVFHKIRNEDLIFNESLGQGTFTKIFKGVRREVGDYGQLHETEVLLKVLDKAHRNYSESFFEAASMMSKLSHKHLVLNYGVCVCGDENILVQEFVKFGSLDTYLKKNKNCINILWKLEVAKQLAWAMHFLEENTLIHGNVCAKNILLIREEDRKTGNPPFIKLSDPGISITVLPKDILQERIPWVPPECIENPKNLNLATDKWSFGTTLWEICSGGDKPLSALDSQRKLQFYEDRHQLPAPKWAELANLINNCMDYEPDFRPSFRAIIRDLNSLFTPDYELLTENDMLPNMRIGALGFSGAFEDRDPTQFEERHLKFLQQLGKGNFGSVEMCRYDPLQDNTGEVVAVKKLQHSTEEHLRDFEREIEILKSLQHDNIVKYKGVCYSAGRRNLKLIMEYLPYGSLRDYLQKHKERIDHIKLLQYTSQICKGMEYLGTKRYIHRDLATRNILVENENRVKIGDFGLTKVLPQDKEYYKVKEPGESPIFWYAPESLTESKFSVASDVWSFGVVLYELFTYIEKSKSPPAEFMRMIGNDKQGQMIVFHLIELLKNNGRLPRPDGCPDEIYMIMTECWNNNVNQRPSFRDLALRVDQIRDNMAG

## Cc1cc(Nc2ccc3ncn([C@@H]4CCc5ccc(F)cc54)c3n2)[nH]n1.Cl.Cl [Example 1, 3-[(1R)-6-fluoro-2,3-dihydro-1H-inden-1-yl]-N-(3-methyl-1H-pyrazol-5-yl)-3H-imidazo[4,5-b]pyridin-5-amine dihydrochloride]
[1]
  IC50: 66 nM
[2]
  IC50: 1.7 nM
